Values quoted from earlier work, collected in patent publication US8202852B2, “Creatine phosphate analog prodrugs, compositions and uses thereof” (XenoPort, Inc., priority 2006, dated 2012).
Read-outs that look alike come from different tables or passages of the source.

Key:
[1] = animals, diet containing up to 1%
[2] = not given; remark: listed apart in the source

Structure (SMILES): NC1=NCCN1CC(=O)O [cyclocreatine]
- adverse effects [1]: do not exhibit adverse effects

Structure (SMILES): CN(CC(=O)O)C(=N)N.O [creatine monohydrate]
- adverse side effects (athletes and body builders, 2-3 gm/day): without adverse side effects

Structure (SMILES): CN(CC(=O)O)C(=N)NP(=O)(O)O [creatine phosphate]
- adverse side effects (patients with cardiac diseases, intravenous injection up to 8 gm/day): without adverse side effects

Structure (SMILES): CN(CC(=O)O)C(=N)N [creatine, Creatine]
- overall increase in creatine phosphate levels ([2]; creatine supplementation, typically takes weeks): < 50%
- increase in cerebral creatine phosphate ([2]; healthy volunteers, oral creatine administration): about 10%
